Here are results for 22 compounds from patent publication US8431597B2, “Benzimidazole derivatives” (Pfizer Inc., priority 2007, dated 2013).

Structures can show the parent of a compound that is named as a salt.

The target in this assay is T1, Smoothened (SMO) (Mus musculus, UniProt P56726).
T1 construct: C3H10T1/2 cells (ATCC #CCL-226) were split and seeded; endogenous in cells; host or cells: C3H10T1/2 (ATCC #CCL-226)
T1 sequence (P56726 33-793): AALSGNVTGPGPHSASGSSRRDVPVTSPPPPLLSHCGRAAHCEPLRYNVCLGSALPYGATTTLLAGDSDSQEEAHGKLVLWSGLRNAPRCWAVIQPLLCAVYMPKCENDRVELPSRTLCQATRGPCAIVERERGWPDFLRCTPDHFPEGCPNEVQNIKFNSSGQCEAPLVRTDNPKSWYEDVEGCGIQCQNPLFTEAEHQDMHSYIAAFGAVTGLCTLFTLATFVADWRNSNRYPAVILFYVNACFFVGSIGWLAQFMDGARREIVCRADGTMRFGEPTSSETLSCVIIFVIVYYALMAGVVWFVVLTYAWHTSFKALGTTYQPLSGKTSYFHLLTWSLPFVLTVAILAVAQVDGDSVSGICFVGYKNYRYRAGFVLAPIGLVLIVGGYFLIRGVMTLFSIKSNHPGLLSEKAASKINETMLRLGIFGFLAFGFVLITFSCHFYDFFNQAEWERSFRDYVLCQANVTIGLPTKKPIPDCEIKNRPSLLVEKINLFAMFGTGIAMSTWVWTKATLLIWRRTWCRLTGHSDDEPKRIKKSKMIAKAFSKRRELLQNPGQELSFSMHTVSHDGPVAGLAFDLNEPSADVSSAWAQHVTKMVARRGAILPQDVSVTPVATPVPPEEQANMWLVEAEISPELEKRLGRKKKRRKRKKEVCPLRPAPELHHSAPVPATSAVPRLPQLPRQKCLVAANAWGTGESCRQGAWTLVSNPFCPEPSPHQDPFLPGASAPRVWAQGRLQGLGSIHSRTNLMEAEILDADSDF
As to the kind of experiment: Smoothened (SMO)/Sonic Hedgehog (SHh) Transient Transcriptional Activation Assay (Gli-luciferase reporter in C3H10T1/2 cells). Type of assay: cell-based, murine. The conditions noted are these: C3H 10T1/2, 2 μM compound; transfected C3H10T1/2 cells, recombinant human SHh 250 ng/mL, 20 hours, luciferase readout; read-out: SMO CELL % INHIBITION @ 2 μM. The protocol:
As noted above, the compounds of the invention are useful as inhibitors of SMO. • Methods for determining the in vitro activity of these compounds are described below: Smoothened (SMO)/Sonic Hedgehog (SHh) Transient Transcriptional Activation Assay
On Day 1, 2×10^6 C3H10T1/2 cells (ATCC #CCL-226) were split and seeded in 12 mL of growth medium Basal Medium Eagle (BME, Invitrogen #21010-046) supplemented with 2 mM L-glutamine (Invitrogen #25030-081), 0.1 units/mL penicillin and 0.1 μg/mL streptomycin (Invitrogen #15140-122), and 10% Fetal Bovine Serum (FBS, Invitrogen #16140-071) in a T-75 flask (Costar #3376). They were allowed to attach for 4 hours at 37° C., 5% CO2. The cells were then transfected using Fugene 6 (Roch #11 814 443 001) in the following reaction: 48 μL Fugene 6 and 745 μL Opti-MEM (Invitrogen #31985-070) were mixed and allowed to sit at room temperature for 5 minutes. 8 μg of pGL4.14/mGli(CS) DNA (10× murine Gli response elements and minimal CS promoter) and 0.5 μg of pEGFP DNA (Clontech) were added, gently mixed and incubated at room temperature for 20 minutes. This entire transfection mix was then added to the T-75 flask containing the cells. The cells were incubated at 37° C., 5% CO2 for 18-24 hours.
On Day 2, the transfected cells were trypsinized and seeded into white 96 well plates (Costar #3917) in 100 μL/well of growth medium at a concentration of 20,000 cells/well. The cells were allowed to recover for 4 hours before adding serum starvation medium Dulbecco's Modified Eagle Medium (DMEM, Invitrogen #21063-029) supplemented with 2 mM L-glutamine, 0.1 units/mL penicillin and 0.1 μg/mL streptomycin, and 0.5% Calf Serum (CS, Invitrogen #26170-043). The growth media was aspirated off, and the cells were rinsed with 100 μL of starvation media. 95 μL of starvation media was then added to each well. The cells were incubated for 20 hours at 37° C., 5% CO2.
On Day 3, cells were dosed with test compounds at a final concentration ranging from 2 μM to 2 nM. Immediately after dosing cells with compounds, recombinant human sonic hedgehog (SHh, R&D Systems #1845-SH) was add to a final concentration of 250 ng/mL. A 25 μg vial of SHh was reconstituted with 250 μL PBS/0.1% BSA to give a 100 ng/μL working stock. This working stock was then diluted 1:20 in starvation media. The transfected cells were incubated with compounds and SHh for 20 hours at 37° C., 5% CO2.
Luciferase assays were conducted on Day 4 using Dual-Glo Luciferase assay system (Promega #E2940) according to Promega's protocol. Briefly, Dual-Glo luciferase reagent was made up and 100 μL were added to each well of the 96 well plate containing media. Plates were shaken at room temperature for 10 minutes, and then read on TopCount (Perkin-Elmer). The luminescence was recorded.
Take `O=C(N[C@@H]1CCN2CCn3c(nc4ccccc43)[C@H]2C1)c1ccc2c(c1)OCCO2` [Example 12, N-[(2R,13bR)-1,3,4,6,7,13b-hexahydro-2H-pyrido[2′,1′:3,4]pyrazino[1,2-a]benzimidazol-2-yl]-2,3-dihydro-1,4-benzodioxine-6-carboxamide hydrochloride]: the inhibition at 2 µM was found to be 64.1%.

On to `COc1ccc(NC(=O)N[C@@H]2CCN(C)[C@@H](c3nc4ccccc4[nH]3)C2)cn1` [Example 83, 1-[(2R,4R)-2-(1H-benzimidazol-2-yl)-1-methylpiperidin-4-yl]-3-(6-methoxypyridin-3-yl)urea hydrochloride], for which the inhibition at 2 µM is 96.1%.

For the compound `COc1ccc2nc([C@@H]3C[C@H](NC(=O)Nc4ccc(Cl)c(C(F)(F)F)c4)CN3C)[nH]c2c1` [Example 25, 1-[4-chloro-3-(trifluoromethyl)phenyl]-3-[(3S,5S)-5-(6-methoxy-1H-benzimidazol-2-yl)-1-methylpyrrolidin-3-yl]urea], the inhibition at 2 µM is 105%.

Consider `CC(=O)c1c(C)[nH]c(C(=O)N[C@@H]2CCN(C)[C@@H](c3nc4ccccc4[nH]3)C2)c1C` [Example 50, 4-acetyl-N-[(2R,4R)-2-(1H-benzimidazol-2-yl)-1-methylpiperidin-4-yl]-3,5-dimethyl-1H-pyrrole-2-carboxamide hydrochloride], for which the inhibition at 2 µM was found to be 105%.

On to `CN1CC[C@@H](NC(=O)c2ccc(-c3cnco3)cc2)C[C@@H]1c1nc2ccccc2[nH]1` [Example 92, N-[(2R,4R)-2-(1H-benzimidazol-2-yl)-1-methylpiperidin-4-yl]-4-(1,3-oxazol-5-yl)benzamide hydrochloride], for which the inhibition at 2 µM came to 86.4%.

On to `Cc1ccc(NC(=O)N[C@@H]2CCN(C)[C@@H](c3nc4ccc(Cl)cc4[nH]3)C2)cn1` [Example 126, 1-[(2R,4R)-2-(6-chloro-1H-benzimidazol-2-yl)-1-methylpiperidin-4-yl]-3-(6-methylpyridin-3-yl)urea hydrochloride], for which the inhibition at 2 µM is 110%.

Consider `CN1CC[C@@H](NC(=O)c2ccc3c(c2)OCCO3)C[C@@H]1c1nc2ccc(C#N)cc2[nH]1` [Example 63, N-[(2R,4R)-2-(6-cyano-1H-benzimidazol-2-yl)-1-methylpiperidin-4-yl]-2,3-dihydro-1,4-benzodioxine-6-carboxamide hydrochloride], for which the inhibition at 2 µM was determined as 104%.

As to `O=C(Nc1ccc(Cl)c(C(F)(F)F)c1)N[C@@H]1CN[C@H](c2nc3ccc(F)cc3[nH]2)C1` [Example 13, 1-[4-chloro-3-(trifluoromethyl)phenyl]-3-[(3S,5S)-5-(6-fluoro-1H-benzimidazol-2-yl)pyrrolidin-3-yl]urea], the inhibition at 2 µM is 84.2%.

Regarding `CN1CC[C@@H](NC(=O)Nc2ccc3c(c2)OCCO3)C[C@@H]1c1nc2ccccc2[nH]1` [Example 67, 1-[(2R,4R)-2-(1H-benzimidazol-2-yl)-1-methylpiperidin-4-yl]-3-(2,3-dihydro-1,4-benzodioxin-6-yl)urea hydrochloride], the inhibition at 2 µM amounted to 103%.

Take `CN1CC[C@@H](NC(=O)Nc2cc(F)cc3c2OCOC3)C[C@@H]1c1nc2ccccc2[nH]1` [Example 41, 1-[(2R,4R)-2-(1H-benzimidazol-2-yl)-1-methylpiperidin-4-yl]-3-(6-fluoro-4H-1,3-benzodioxin-8-yl)urea hydrochloride]: the inhibition at 2 µM was determined as 106%.

As to `CN1CC[C@@H](NC(=O)[C@@H]2COc3ccccc3O2)C[C@@H]1c1nc2ccccc2[nH]1` [Example 105, (2S)-N-[(2R,4R)-2-(1H-benzimidazol-2-yl)-1-methylpiperidin-4-yl]-2,3-dihydro-1,4-benzodioxine-2-carboxamide trifluoroacetate], the inhibition at 2 µM came to 97.8%.

As to `CN1CC[C@@H](NC(=O)Nc2cc(Cl)cc(Cl)c2)C[C@@H]1c1nc2ccccc2[nH]1` [Example 28, 1-[(2R,4R)-2-(1H-benzimidazol-2-yl)-1-methylpiperidin-4-yl]-3-(3,5-dichlorophenyl)urea hydrochloride], the inhibition at 2 µM amounted to 108%.

On to `COc1ccc2[nH]c([C@H]3C[C@H](NC(=O)Nc4ccc(C)nc4)CCN3C3CCC3)nc2c1` [Example 153, 1-[(2R,4R)-1-cyclobutyl-2-(5-methoxy-1H-benzimidazol-2-y1)piperidin-4-yl]-3-(6-methylpyridin-3-yl)urea triflouroacetate], for which the inhibition at 2 µM worked out at 107%.

For `CN1CC[C@@H](NC(=O)Nc2ccc(C(F)(F)F)nc2)C[C@@H]1c1nc2ccc(Cl)cc2[nH]1` [Example 73, 1-[(2R,4R)-2-(6-chloro-1H-benzimidazol-2-yl)-1-methylpiperidin-4-yl]-3-[6-(trifluoromethyl)pyridin-3-yl]urea hydrochloride], the inhibition at 2 µM was 101%.

As for `CN1CC[C@@H](NC(=O)c2ccc3c(c2)CCO3)C[C@@H]1c1nc2ccccc2[nH]1` [Example 47, N-[(2R,4R)-2-(1H-benzimidazol-2-yl)-1-methylpiperidin-4-yl]-2,3-dihydro-1-benzofuran-5-carboxamide hydrochloride], the inhibition at 2 µM came out at 105%.

Take `CN1CC[C@@H](NC(=O)Nc2ccc(C(F)(F)F)nc2)C[C@@H]1c1nc2cc(C#N)ccc2[nH]1` [Example 55, 1-[(2R,4R)-2-(5-cyano-1H-benzimidazol-2-yl)-1-methylpiperidin-4-yl]-3-[6-(trifluoromethyl)pyridin-3-yl]urea hydrochloride]: the inhibition at 2 µM was determined as 105%.

Take `CN1CC[C@@H](NC(=O)Nc2ccc(Cl)cc2)C[C@@H]1c1nc2ccccc2[nH]1` [Example 30, 1-[(2R,4R)-2-(1H-benzimidazol-2-yl)-1-methylpiperidin-4-yl]-3-(4-chlorophenyl)urea hydrochloride]: the inhibition at 2 µM was found to be 108%.

For `CC(C)CCN1CC[C@@H](NC(=O)Nc2ccc(C#N)cc2)C[C@@H]1c1nc2ccccc2[nH]1` [Example 60, 1-[(2R,4R)-2-(1H-benzimidazol-2-yl)-1-(3-methylbutyl)piperidin-4-yl]-3-(4-cyanophenyl)urea], the inhibition at 2 µM stood at 104%.

As to `Cc1cncc(NC(=O)N[C@@H]2CCN(C)[C@@H](c3nc4ccccc4[nH]3)C2)c1` [Example 69, 1-[(2R,4R)-2-(1H-benzimidazol-2-yl)-1-methylpiperidin-4-yl]-3-(5-methylpyridin-3-yl)urea hydrochloride], the inhibition at 2 µM turned out to be 102%.

For `CN1C[C@@H](NC(=O)Nc2ccc(Cl)c(C(F)(F)F)c2)C[C@H]1c1nc2ccc(F)cc2[nH]1` [Example 58, 1-[4-chloro-3-(trifluoromethyl)phenyl]-3-[(3S,5S)-5-(6-fluoro-1H-benzimidazol-2-yl)-1-methylpyrrolidin-3-yl]urea], the inhibition at 2 µM was 104%.

Regarding `COc1cc(C(=O)N[C@@H]2CCN(C)[C@@H](c3nc4ccccc4[nH]3)C2)ccc1F` [Example 102, N-[(2R,4R)-2-(1H-benzimidazol-2-yl)-1-methylpiperidin-4-yl]-4-fluoro-3-methoxybenzamide trifluoroacetate], the inhibition at 2 µM stood at 102%.

For the compound `CN1CC[C@@H](NC(=O)Nc2ccc(C(F)(F)F)nc2)C[C@@H]1c1nc2ccccc2[nH]1` [Example 66, 1-[(2R,4R)-2-(1H-benzimidazol-2-yl)-1-methylpiperidin-4-y1]-3-[6-(trifluoromethyl)pyridin-3-yl]urea hydrochloride], the inhibition at 2 µM was 103%.
